Results taken from ChEMBL document CHEMBL1130948, “Synthesis of sialyl Lewis X mimetics using the Ugi four-component reaction” (Bioorg Med Chem Lett, 1998).
Values joined by “and” are separate entries in the source; they are usually repeats but may differ in a detail not shown here. Identical values can stand only once. Active and inactive are the calls of the source. No cut-off for these calls is given here.

What was measured:
[1] = target: T1, E-selectin (Homo sapiens) (UniProt P16581); assay: Compound was tested in a cell-free SLe-polymer/Selectin E assay, at 3 mM concentration.
T1 sequence (whole entry): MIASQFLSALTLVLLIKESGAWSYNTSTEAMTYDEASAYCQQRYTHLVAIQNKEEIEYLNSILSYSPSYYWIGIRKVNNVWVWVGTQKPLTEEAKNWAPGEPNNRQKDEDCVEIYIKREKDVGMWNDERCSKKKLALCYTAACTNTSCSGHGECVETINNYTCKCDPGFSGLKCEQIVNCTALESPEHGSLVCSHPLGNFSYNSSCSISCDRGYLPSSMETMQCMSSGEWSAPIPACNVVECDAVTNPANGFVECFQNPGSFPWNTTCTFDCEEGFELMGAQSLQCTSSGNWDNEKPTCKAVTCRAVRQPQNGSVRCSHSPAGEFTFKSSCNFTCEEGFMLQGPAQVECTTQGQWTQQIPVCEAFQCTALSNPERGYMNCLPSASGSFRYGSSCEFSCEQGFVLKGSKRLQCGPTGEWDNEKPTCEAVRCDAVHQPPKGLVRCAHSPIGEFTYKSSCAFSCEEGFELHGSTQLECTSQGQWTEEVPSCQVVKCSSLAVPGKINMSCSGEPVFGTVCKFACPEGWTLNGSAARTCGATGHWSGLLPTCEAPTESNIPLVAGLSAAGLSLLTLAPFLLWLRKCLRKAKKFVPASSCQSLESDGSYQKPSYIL

E-selectin [2] = target: T2, E-selectin (Homo sapiens, UniProt P16581); assay: Compound was tested in a cell-free SLe-polyacrylamide glycoconjugate binding assay (assay B) in Selectin E
T2 sequence (P16581 whole entry): T1 sequence (whole entry)

P-selectin [3] = target: T3, P-selectin (Homo sapiens, UniProt P16109); assay: Tested in a cell-free SLe-polyacrylamide glycoconjugate binding assay (assay A) in P-selectin
T3 sequence (P16109 whole entry): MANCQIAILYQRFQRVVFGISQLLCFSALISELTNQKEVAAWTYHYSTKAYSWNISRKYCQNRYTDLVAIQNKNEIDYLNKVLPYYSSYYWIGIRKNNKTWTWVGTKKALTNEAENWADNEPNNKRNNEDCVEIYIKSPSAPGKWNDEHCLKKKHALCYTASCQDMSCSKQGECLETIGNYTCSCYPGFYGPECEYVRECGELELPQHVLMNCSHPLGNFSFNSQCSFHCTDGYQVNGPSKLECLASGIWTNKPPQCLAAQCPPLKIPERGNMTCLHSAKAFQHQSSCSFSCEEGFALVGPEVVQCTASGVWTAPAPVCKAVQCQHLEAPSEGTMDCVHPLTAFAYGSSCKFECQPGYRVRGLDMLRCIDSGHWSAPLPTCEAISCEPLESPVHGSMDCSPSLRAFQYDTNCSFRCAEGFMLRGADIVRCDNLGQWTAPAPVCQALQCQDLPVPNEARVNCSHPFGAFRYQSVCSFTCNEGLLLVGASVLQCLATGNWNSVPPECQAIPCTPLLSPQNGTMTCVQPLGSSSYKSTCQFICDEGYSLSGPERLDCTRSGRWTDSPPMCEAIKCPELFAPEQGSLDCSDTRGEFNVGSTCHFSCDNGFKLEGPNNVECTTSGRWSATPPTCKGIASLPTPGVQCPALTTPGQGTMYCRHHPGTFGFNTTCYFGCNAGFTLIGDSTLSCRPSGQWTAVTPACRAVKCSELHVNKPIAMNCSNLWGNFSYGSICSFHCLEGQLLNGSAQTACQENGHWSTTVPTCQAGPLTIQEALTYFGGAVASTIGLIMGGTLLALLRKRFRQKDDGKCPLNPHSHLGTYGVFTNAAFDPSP

P-selectin [4] = target: T3, P-selectin; assay: Compound was tested in a cell-free SLe-polyacrylamide glycoconjugate binding assay (assay B) in P-selectin
E-selectin [5] = target: T2, E-selectin; assay: Compound was tested in a cell-free SLe-polyacrylamide glycoconjugate binding assay (assay A) in Selectin E
P-selectin [6] = target: T3, P-selectin; assay: Tested in a cell-free SLe-polyacrylamide glycoconjugate binding assay (assay A) in P-selectin; inactive
P-selectin [7] = target: T3, P-selectin; assay: Compound was tested in a cell-free SLe-polyacrylamide glycoconjugate binding assay (assay B) in P-selectin; value ranges from 1.3-2
[8] = target: T1, E-selectin (Homo sapiens); assay: Inhibitory activity against E-selectin was tested in a cell-free SLe-polymer/Selectin E assay, at 3 mM concentration; […].
[9] = target: T1, E-selectin (Homo sapiens); assay: Inhibitory activity against E-selectin was tested in a cell-free SLe-polymer/Selectin E assay, at 3 mM concentration.
P-selectin [10] = target: T3, P-selectin; assay: Compound was tested in a cell-free SLe-polyacrylamide glycoconjugate binding assay (assay A) in P-selectin; value ranges from 1-3
[11] = target: T1, E-selectin (Homo sapiens); assay: (§1) Compound was tested in a cell-free SLe-polyacrylamide glycoconjugate binding assay (assay A) in Selectin E at 3 mM
[12] = target: T1, E-selectin (Homo sapiens); assay: as §1; remark: listed apart in the source
[13] = target: T4, P-selectin (Homo sapiens) (UniProt P16109); details: 1 mM
T4 sequence (whole entry): T3 sequence (P16109 whole entry)
Description: Compound was tested in a cell-free SLe-polyacrylamide glycoconjugate binding assay (assay A) in P-selectin at 1 mM

E-selectin [14] = target: T2, E-selectin; assay: Compound was tested in a cell-free SLe-polyacrylamide glycoconjugate binding assay (assay A) in Selectin E; inactive
[15] = target: T1, E-selectin (Homo sapiens); assay: Inhibitory activity against E-selectin was tested in a cell-free SLe-polymer/Selectin E assay, at 3 mM concentration; […]

Structure (SMILES)	IC50 (E-selectin [2])	IC50 (P-selectin [4])	IC50 (E-selectin [5])	also measured
O=C(O)CNC(=O)C(CC1OC(CO)C(O)C(O)C1O)N(CC(=O)O)C(=O)C(F)(F)F (stereo not drawn)	–	–	–	inhibition [1]: 42%
CC1OC(CC(C(=O)NCCc2ccccc2)N(CC(=O)NC(CCC(=O)O)C(=O)O)C(=O)CCc2ccc(Oc3ccc(Oc4ccccc4)cc3)cc2)C(O)C(O)C1O (stereo not drawn)	> 4000 µM	28 µM	530 µM	IC50 (P-selectin [3]): 283 µM
COC(=O)CNC(=O)C(CCC(=O)O)N(C(=O)CC1OC(CO)C(O)C(O)C1O)C(CCC(=O)O)C(=O)O (stereo not drawn)	> 4000 µM	28 µM	3000 µM	IC50 (P-selectin [6]): Not Active
COC(=O)CCC(=O)N(C(CCC(=O)O)C(=O)O)C(CC1OC(CO)C(O)C(O)C1O)C(=O)NCC(=O)OC (stereo not drawn)	> 4000 µM	39 µM and 142 µM	3000 µM and > 3000 µM	IC50 (P-selectin [6]): Not Active
CC(=O)N[C@H]1[C@H]([C@H](O)[C@H](O)CO)O[C@@](O[C@H]2[C@@H](O)[C@@H](CO)O[C@@H](O[C@@H]([C@H](O[C@@H]3O[C@@H](C)[C@@H](O)[C@@H](O)[C@@H]3O)[C@H](C=O)NC(C)=O)[C@H](O)CO)[C@@H]2O)(C(=O)O)C[C@@H]1O [SIALYL LEWIS X]	1090 µM	–	480 µM	IC50 (P-selectin [7]): 1300 µM; IC50 (P-selectin [3]): > 3000 µM
CCOCCOCCOCCOCCCCOCC1OC(CC(=O)N(C(C)C(=O)NCC(=O)OC)C(CCC(=O)O)C(=O)O)C(O)C(O)C1O (stereo not drawn)	> 10000 µM	5 µM and 1 µM	500 µM and 300 µM	IC50 (P-selectin [3]): > 3000 µM
CC1OC(CC(=O)N(CC(=O)NC(CCC(=O)O)C(=O)O)C(CCc2ccc(Oc3ccc(Oc4ccccc4)cc3)cc2)C(=O)NCCc2ccccc2)C(O)C(O)C1O (stereo not drawn)	> 2500 µM	76 µM	950 µM	–
O=C(O)CNC(=O)C(CC1OC(CO)C(O)C(O)C1O)N(CC(=O)O)C(=O)c1ccc(-c2ccccc2)cc1 (stereo not drawn)	–	–	–	inhibition [8]: inactive
CC(C(=O)NCCc1ccccc1)N(C(=O)CC1OC(COc2ccccc2)C(O)C(O)C1O)C(CCC(=O)O)C(=O)O (stereo not drawn)	> 2500 µM	311 µM and 85 µM	> 3000 µM	–
O=C(O)CNC(=O)C(CC1OC(CO)C(O)C(O)C1O)N(CC(=O)O)C(=O)CC1c2ccccc2-c2ccccc21 (stereo not drawn)	–	–	–	inhibition [8]: inactive
O=C(O)CNC(=O)C(CC1OC(CO)C(O)C(O)C1O)N(CC(=O)O)C(=O)Cc1cccc2ccccc12 (stereo not drawn)	–	–	–	inhibition [9]: 42%
COC(=O)CNC(=O)C(C)N(C(=O)CC1OC(COCCCc2ccc(Oc3ccc(Oc4ccccc4)cc3)cc2)C(O)C(O)C1O)C(CCC(=O)O)C(=O)O (stereo not drawn)	3420 µM and 3620 µM	127 µM and 32 µM	420 µM and 600 µM	IC50 (P-selectin [10]): 1000 µM
O=C(O)CNC(=O)C(CC1OC(CO)C(O)C(O)C1O)N(CC(=O)O)C(=O)Cc1ccc2ccccc2c1 (stereo not drawn)	–	–	–	inhibition [9]: 51%
O=C(O)CNC(=O)C(CC1OC(CO)C(O)C(O)C1O)N(CC(=O)O)C(=O)c1cccc2c1Cc1ccccc1-2 (stereo not drawn)	–	–	–	inhibition [9]: 48%
CCOCCOCCOCCOCCCCOCC1OC(CC(=O)NC(CCC(=O)O)C(=O)O)C(O)C(O)C1O (stereo not drawn)	> 10000 µM	20 µM	–	IC50 (E-selectin [14]): Not Active; IC50 (P-selectin [3]): > 3000 µM
O=C(O)CCC(NC(=O)CC1OC(COCCCc2ccc(Oc3ccc(Oc4ccccc4)cc3)cc2)C(O)C(O)C1O)C(=O)O (stereo not drawn)	> 10000 µM	4 µM	350 µM	IC50 (P-selectin [3]): 34 µM
C/C=C/C=C/C(=O)N(CC(=O)O)C(CC1OC(CO)C(O)C(O)C1O)C(=O)NCC(=O)O (stereo not drawn)	–	–	–	inhibition [15]: inactive
CCCCCCCCCCCCCC(=O)N(CC(=O)O)C(CC1OC(CO)C(O)C(O)C1O)C(=O)NCC(=O)O (stereo not drawn)	–	–	–	inhibition [9]: 32%
COC(=O)CNC(=O)C(C)N(C(=O)CC1OC(CO)C(O)C(O)C1O)C(CCC(=O)O)C(=O)O (stereo not drawn)	> 10000 µM	–	360 µM and 1000 µM	–
O=C(O)CNC(=O)C(CC1OC(CO)C(O)C(O)C1O)N(CC(=O)O)C(=O)c1ccccc1 (stereo not drawn)	–	–	–	inhibition [9]: 38%
CCCCCC(=O)N(CC(=O)O)C(CC1OC(CO)C(O)C(O)C1O)C(=O)NCC(=O)O (stereo not drawn)	–	–	–	inhibition [1]: 52%
CC(=O)N(CC(=O)O)C(CC1OC(CO)C(O)C(O)C1O)C(=O)NCC(=O)O (stereo not drawn)	–	–	–	inhibition [1]: 28%
COC(=O)CNC(=O)C(C)N(C(=O)CC1OC(COc2ccccc2)C(O)C(O)C1O)C(CCC(=O)O)C(=O)O (stereo not drawn)	> 2500 µM	41 µM and 43 µM	3400 µM and 2800 µM	–
CC(C(=O)NC(C)(C)C)N(C(=O)CC1OC(COc2ccccc2)C(O)C(O)C1O)C(CCC(=O)O)C(=O)O (stereo not drawn)	> 2500 µM	87 µM and 136 µM	> 3000 µM	–
COC(=O)CNC(=O)C(CC1OC(C)C(O)C(O)C1O)N(Cc1ccccc1)C(=O)C(NC(=O)CCC(=O)O)C(O)CO (stereo not drawn)	–	–	840 µM	–

More lines, main results first:

IC50 (E-selectin [2])	IC50 (P-selectin [4])	IC50 (E-selectin [5])	Structure (SMILES)	also measured
> 4000 µM	15 µM	3000 µM	O=C(O)CCC(C(=O)O)N(C(=O)CC1OC(CO)C(O)C(O)C1O)C(CCC(=O)O)C(=O)NCC(=O)O (stereo not drawn)	IC50 (P-selectin [6]): Not Active
> 4000 µM	18 µM and 25 µM	–	O=C(O)CCC(=O)N(C(CCC(=O)O)C(=O)O)C(CC1OC(CO)C(O)C(O)C1O)C(=O)NCC(=O)O (stereo not drawn)	inhibition [11]: 45%; IC50 (P-selectin [6]): Not Active; inhibition [12]: 45%; inhibition [13]: 29%
